Tests used:
[1] = target: Monoamine transporters; serotonin & dopamine (Rattus norvegicus) (UniProt P31652+P23977); test: Selectivity for serotonin transporter compared to dopamine transporter.; format: protein assay
[2] = target: Norepinephrine transporter (Rattus norvegicus, UniProt Q9WTR4); test: Affinity at norepinephrine transporter (NET) in rat striatum, using [3H]- nisoxatine as radioligand; format: tissue-based
Rattus norvegicus = species: Rattus norvegicus; test: Inhibition of dopamine reuptake ([3H]DA uptake) in […]; format: functional
[3] = target: Sodium-dependent dopamine transporter (Rattus norvegicus) (UniProt P23977); test: Ratio of ([3H]-DA uptake) / [3H]WIN-35428 binding was determined in […]
Chain of Sodium-dependent dopamine transporter (Rattus norvegicus) (P23977 whole entry, looked up): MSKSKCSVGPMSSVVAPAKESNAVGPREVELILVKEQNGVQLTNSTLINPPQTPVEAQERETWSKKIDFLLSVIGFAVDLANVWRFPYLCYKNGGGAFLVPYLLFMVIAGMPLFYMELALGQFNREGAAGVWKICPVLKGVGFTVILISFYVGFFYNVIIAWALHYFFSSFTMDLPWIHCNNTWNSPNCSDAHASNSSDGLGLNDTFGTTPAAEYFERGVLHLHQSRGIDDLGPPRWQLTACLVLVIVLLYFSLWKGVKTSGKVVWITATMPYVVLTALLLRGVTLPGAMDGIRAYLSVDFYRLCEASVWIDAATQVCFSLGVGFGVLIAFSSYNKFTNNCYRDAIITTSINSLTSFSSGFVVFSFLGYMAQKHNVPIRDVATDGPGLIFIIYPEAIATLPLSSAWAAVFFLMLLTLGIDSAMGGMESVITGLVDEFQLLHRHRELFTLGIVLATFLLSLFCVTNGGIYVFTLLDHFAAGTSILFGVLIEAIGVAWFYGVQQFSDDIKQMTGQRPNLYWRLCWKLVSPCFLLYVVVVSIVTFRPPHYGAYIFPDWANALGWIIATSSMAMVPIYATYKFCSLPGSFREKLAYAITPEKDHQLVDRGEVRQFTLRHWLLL

[4] = target: Sodium-dependent dopamine transporter (Rattus norvegicus, UniProt P23977); test: In vitro binding affinity at dopamine transporter in rat striatum by [3H]WIN-35428 displacement.; format: tissue-based
Chain of Sodium-dependent dopamine transporter (P23977 whole entry): as the sequence (P23977 whole entry, looked up) above

[5] = target: Sodium-dependent serotonin transporter (Rattus norvegicus, UniProt P31652); test: In vitro binding affinity at serotonin transporter in rat striatum by [3H]- citalopram displacement.; format: tissue-based
Chain of Sodium-dependent serotonin transporter (P31652 whole entry): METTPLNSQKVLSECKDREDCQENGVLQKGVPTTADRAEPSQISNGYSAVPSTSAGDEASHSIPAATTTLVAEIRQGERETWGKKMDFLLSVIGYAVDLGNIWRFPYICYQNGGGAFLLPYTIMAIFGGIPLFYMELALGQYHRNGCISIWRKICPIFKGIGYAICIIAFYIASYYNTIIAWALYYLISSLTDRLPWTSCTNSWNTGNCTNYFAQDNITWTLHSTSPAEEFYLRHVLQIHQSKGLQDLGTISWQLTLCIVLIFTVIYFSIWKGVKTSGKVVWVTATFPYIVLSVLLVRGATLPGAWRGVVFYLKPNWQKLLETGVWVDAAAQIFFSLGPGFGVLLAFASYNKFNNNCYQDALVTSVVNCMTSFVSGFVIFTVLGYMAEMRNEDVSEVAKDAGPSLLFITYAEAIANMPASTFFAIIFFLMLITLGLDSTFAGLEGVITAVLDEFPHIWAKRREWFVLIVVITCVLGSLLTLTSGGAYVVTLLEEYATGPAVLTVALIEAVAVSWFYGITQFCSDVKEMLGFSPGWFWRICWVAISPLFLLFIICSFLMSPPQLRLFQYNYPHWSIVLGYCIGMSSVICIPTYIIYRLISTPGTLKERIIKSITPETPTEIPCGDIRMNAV

Chain of Monoamine transporters; serotonin & dopamine (Rattus norvegicus) (P23977 whole entry, looked up): as the sequence (P23977 whole entry, looked up) above
Chain of Monoamine transporters; serotonin & dopamine (Rattus norvegicus) (P31652 whole entry, looked up): as the sequence (P31652 whole entry) above
Chain of Norepinephrine transporter (Q9WTR4 whole entry): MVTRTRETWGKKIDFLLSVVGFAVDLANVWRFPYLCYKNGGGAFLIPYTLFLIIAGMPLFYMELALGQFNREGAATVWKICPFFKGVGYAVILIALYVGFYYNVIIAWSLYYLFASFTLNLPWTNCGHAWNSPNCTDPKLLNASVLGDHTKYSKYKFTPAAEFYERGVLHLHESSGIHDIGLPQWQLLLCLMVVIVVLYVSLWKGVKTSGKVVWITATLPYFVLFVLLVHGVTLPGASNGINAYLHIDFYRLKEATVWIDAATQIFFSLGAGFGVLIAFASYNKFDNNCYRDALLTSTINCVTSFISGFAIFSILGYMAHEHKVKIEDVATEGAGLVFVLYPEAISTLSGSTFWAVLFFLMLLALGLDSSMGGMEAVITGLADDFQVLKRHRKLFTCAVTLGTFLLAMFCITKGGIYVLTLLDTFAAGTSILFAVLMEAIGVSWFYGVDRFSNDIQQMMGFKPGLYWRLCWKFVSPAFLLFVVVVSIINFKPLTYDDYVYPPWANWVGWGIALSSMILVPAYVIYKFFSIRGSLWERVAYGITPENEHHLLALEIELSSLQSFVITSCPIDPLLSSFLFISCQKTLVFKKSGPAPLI

| SMILES | Ratio [1] | IC50 [2] [nM] | IC50 (Rattus norvegicus) [nM] | Ratio [3] | IC50 [4] [nM] | IC50 [5] [nM] |
| --- | --- | --- | --- | --- | --- | --- |
| CC(NCCC1CCN(Cc2ccc(F)cc2)CC1)c1ccccc1 (centres undefined) | 3.2 | – | – | – | – | – |
| Fc1ccc(CN2CCC(CCNC(c3ccccc3)c3ccccc3)CC2)cc1 | 62 | 945 | 12 | 1.33 | – | – |
| Fc1ccc(C(NCC2CCN(CCc3ccccc3)CC2)c2ccc(F)cc2)cc1 | 17 | – | – | – | – | – |
| Fc1ccc(CN2CCC(CCOC(c3ccccc3)c3ccccc3)CC2)cc1F | 122 | 921 | – | – | – | – |
| Fc1ccc(CN2CCC(CCNC(c3ccccc3)c3ccccc3)CC2)cc1F | – | 1030 | 10.7 | – | – | – |
| N#Cc1ccc(CN2CCC(CCOC(c3ccccc3)c3ccccc3)CC2)cc1 | 615 | 342 | 4.58 | – | – | – |
| Fc1ccc(CN2CCC(CNOC(c3ccccc3)c3ccccc3)CC2)cc1 | 19 | 691 | 16.6 | 0.48 | – | – |
| Fc1ccc(CN2CCC(CCOC(c3ccccc3)c3ccccc3)CC2)cc1 | 113 | – | 2.48 | – | – | – |
| CS(=O)(=O)Nc1ccc(CN2CCC(CCOC(c3ccccc3)c3ccccc3)CC2)cc1 | 22 | – | 9.73 | 0.36 | – | – |
| CC(OCCC1CCN(Cc2ccc(F)cc2)CC1)c1ccccc1 (centres undefined) | 7.8 | – | – | – | 751 | 5860 |
| CN(CCC1CCN(Cc2ccc(F)cc2)CC1)C(c1ccccc1)c1ccccc1 | 7.8 | – | – | – | 213 | 1660 |
| Fc1cccc(CN2CCC(CCOC(c3ccccc3)c3ccccc3)CC2)c1 | 49 | – | – | – | – | – |
| O=C(Cc1ccccc1)N1CCC(CCOC(c2ccccc2)c2ccccc2)CC1 | 6.1 | – | – | – | – | 13200 |
| Fc1ccc(CN2CCC(CNCC(c3ccccc3)c3ccccc3)CC2)cc1 | 7 | 1100 | 49.6 | 2.5 | – | – |
| CN(CC1CCN(Cc2ccc(F)cc2)CC1)CC(c1ccccc1)c1ccccc1 | 27 | – | – | – | – | – |
| FC(F)(F)c1ccc(CN2CCC(CCOC(c3ccccc3)c3ccccc3)CC2)cc1 | 71 | – | – | – | – | – |
| c1ccc(CN2CCC(CCNC(c3ccccc3)c3ccccc3)CC2)cc1 | – | 2620 | 20.6 | – | – | – |

Reference: ChEMBL document CHEMBL1134376, “Structure-activity relationship studies of 4-[2-(diphenylmethoxy)ethyl]-1-benzylpiperidine derivatives and their N-analogues: evaluation of O-and N-analogues and their binding to monoamine transporters” (J Med Chem, 2001)
